From the RepoRT retention time repository (doi:10.1016/j.scitotenv.2015.08.078)

Test: RP, Waters ACQUITY UPLC BEH C18, 100 × 2.1 mm, 1.7 µm, 0.3 mL/min, estimated dead time 0.73 min; A: water + 0.1% formic acid, pH 3; B: methanol + 0.1% formic acid, pH 3; gradient (min/%B) 0/10 14/90 16/90 18/10
Conditions: stereoisomer not certain

| Structure (SMILES) | LC retention time [min] |
| --- | --- |
| N#Cc1c[nH]cc1-c1cccc2c1OC(F)(F)O2 [Fludioxonil] | 10.1 |
| O=C(NC(=O)c1c(F)cccc1F)Nc1ccc(Oc2ccc(C(F)(F)F)cc2Cl)cc1F [Flufenoxuron] | 13.5 |
| CC1CCc2cc(F)cc3c(=O)c(C(=O)O)cn1c23 (centres undefined) [Flumequine] | 7.49 |
| CC1CC2C3CC(F)C4=CC(=O)C=CC4(C)C3(F)C(O)CC2(C)C1(O)C(=O)CO (centres undefined) [Flumethasone] | 9.72 |
| Cc1c(Nc2ncccc2C(=O)O)cccc1C(F)(F)F [Flunixin] | 9.31 |
| CN(C)C(=O)Nc1cccc(C(F)(F)F)c1 [Fluomethuron] | 8.25 |
| O=c1c2cc(F)ccc2nc(-n2cncn2)n1-c1ccc(Cl)cc1Cl [Fluquinconazole] | 10.7 |
| Cn1cc(-c2ccccc2)c(=O)c(-c2cccc(C(F)(F)F)c2)c1 [Fluridone] | 9.63 |
| Nc1c(Cl)c(F)nc(OCC(=O)O)c1Cl [Fluroxypyr] | 7.71 |
| C[Si](Cn1cncn1)(c1ccc(F)cc1)c1ccc(F)cc1 [Flusilazole] | 11.4 |
| CC(C)Oc1cccc(NC(=O)c2ccccc2C(F)(F)F)c1 [Flutolanil] | 10.5 |
| OC(Cn1cncn1)(c1ccc(F)cc1)c1ccccc1F (centres undefined) [Flutriafol] | 8.93 |
| O=C(Nc1ccccc1)Nc1ccnc(Cl)c1 [Forchlorfenuron] | 8.95 |
| CNC(=O)Oc1cccc(N=CN(C)C)c1 [Formetanate] | 2.06 |
| CCOP(=O)(SC(C)CC)N1CCSC1=O (centres undefined) [Fosthiazate] | 8.33 |
| c1coc(-c2nc3ccccc3[nH]2)c1 [Fuberidazole] | 6.61 |
| CCCCC(C)C(OC(=O)CC(CC(=O)O)C(=O)O)C(CC(C)CC(O)CCCCC(O)CC(O)C(C)N)OC(=O)CC(CC(=O)O)C(=O)O (centres undefined) [Fumonisin B1] | 9.48 |
| CCCCC(C)C(OC(=O)CC(CC(=O)O)C(=O)O)C(CC(C)CCCCCCC(O)CC(O)C(C)N)OC(=O)CC(CC(=O)O)C(=O)O (centres undefined) [Fumonisin B2] | 11 |
| COC(=O)C(C)N(C(=O)c1ccco1)c1c(C)cccc1C (centres undefined) [Furalaxyl] | 10 |
| O=C1OC(CN2CCOCC2)CN1N=Cc1ccc([N+](=O)[O-])o1 (centres undefined) [Furaltadone] | 2.64 |
| CCCCOC(=O)N(C)SN(C)C(=O)Oc1cccc2c1OC(C)(C)C2 [Furathiocarb] | 12.8 |

| Structure (SMILES) | LC retention time [min] |
| --- | --- |
| O=C1OCCN1N=Cc1ccc([N+](=O)[O-])o1 [Furazolidone] | 2.96 |
| NS(=O)(=O)c1cc(C(=O)O)c(NCc2ccco2)cc1Cl [Furosemide] | 6.6 |
| Cn1c([N+](=O)[O-])cnc1CO [HMMNI (Hydroxy Dimetridazole)] | 2.23 |
| CC(=O)OCC12CC(OC(=O)CC(C)C)C(C)=CC1OC1C(O)C(O)C2(C)C12CO2 (centres undefined) [HT-2 Toxin] | 7.95 |
| CC(C)(C)N(NC(=O)c1ccc(Cl)cc1)C(=O)c1ccccc1 [Halofenozide] | 9.91 |
| COC(=O)c1c(Cl)nn(C)c1S(=O)(=O)NC(=O)Nc1nc(OC)cc(OC)n1 [Halosulfuron methyl] | 7.16 |
| CCOCCOC(=O)C(C)Oc1ccc(Oc2ncc(C(F)(F)F)cc2Cl)cc1 (centres undefined) [Haloxyfop-2-ethoxyethyl] | 13.1 |
| COC(=O)C(C)Oc1ccc(Oc2ncc(C(F)(F)F)cc2Cl)cc1 (centres undefined) [Haloxyfop-methyl] | 12.6 |
| CC(Oc1ccc(Oc2ncc(C(F)(F)F)cc2Cl)cc1)C(=O)O (centres undefined) [Haloxyfop] | 11.8 |
| COP(=O)(OC)OC1=C(Cl)C2C=CCC12 (centres undefined) [Heptenophos] | 9.33 |
| CC(=O)Oc1ccc2c3c1OC1C(OC(C)=O)C=CC4C(C2)N(C)CCC341 (centres undefined) [Heroin] | 5.32 |
| CCCCC(O)(Cn1cncn1)c1ccc(Cl)cc1Cl (centres undefined) [Hexaconazole] | 12 |
| O=C(NC(=O)c1c(F)cccc1F)Nc1cc(Cl)c(OC(F)(F)C(F)F)c(Cl)c1 [Hexaflumuron] | 12.6 |
| CN(C)c1nc(=O)n(C2CCCCC2)c(=O)n1C [Hexazinone] | 7.56 |
| CCC(c1ccc(O)cc1)C(CC)c1ccc(O)cc1 (centres undefined) [Hexestrol] | 11.3 |
| CC1C(c2ccc(Cl)cc2)SC(=O)N1C(=O)NC1CCCCC1 (centres undefined) [Hexythiazox] | 14.2 |
| CC1(C)CN=C(NN=C(C=Cc2ccc(C(F)(F)F)cc2)C=Cc2ccc(C(F)(F)F)cc2)NC1 [Hydramethylnon] | 12.8 |
| CC12CCC(=O)C=C1CCC1C2C(O)CC2(C)C1CCC2(O)C(=O)CO (centres undefined) [Hydrocortisone] | 8.53 |
| Cn1c([N+](=O)[O-])cnc1C(C)(C)O [Hydroxyipronidazole (IPZOH)] | 4.6 |
| CC(C)(CO)NCC(O)c1cc(Cl)c(N)c(Cl)c1 (centres undefined) [Hydroxymethyl clenbuterol] | 4.17 |
| O=[N+]([O-])c1cnc(CO)n1CCO [Hydroxymetronidazole (MNZOH)] | 1.9 |

| Structure (SMILES) | LC retention time [min] |
| --- | --- |
| CC(C)Cc1ccc(C(C)C(=O)O)cc1 (centres undefined) [Ibuprofen] | 12.4 |
| C=CCOC(Cn1ccnc1)c1ccc(Cl)cc1Cl (centres undefined) [Imazalil] | 9.14 |
| COCc1cnc(C2=NC(C)(C(C)C)C(=O)N2)c(C(=O)O)c1 (centres undefined) [Imazamox] | 3.21 |
| CC(C)C1(C)N=C(c2nc3ccccc3cc2C(=O)O)NC1=O (centres undefined) [Imazaquin] | 5.22 |
| Clc1ccc(CSC(Cn2cncn2)=Nc2ccc(Cl)cc2Cl)cc1 [Imibenconazole] | 13 |
| O=[N+]([O-])/N=C1\NCCN1Cc1ccc(Cl)nc1 [Imidacloprid] | 4.63 |
| CC(C)OP(=O)(OC(C)C)SCc1ccccc1 [Iprobenfos] | 11.5 |
| CC(C)NC(=O)N1CC(=O)N(c2cc(Cl)cc(Cl)c2)C1=O [Iprodione] | 11.9 |
| CC(C)c1ncc([N+](=O)[O-])n1C [Ipronidazole (IPZ)] | 5.42 |
| CCCCC1=NC2(CCCC2)C(=O)N1Cc1ccc(-c2ccccc2-c2nn[nH]n2)cc1 [Irbesartan] | 10.4 |
| CCOP(=S)(OCC)Oc1nc(Cl)n(C(C)C)n1 [Isazophos] | 10.8 |
| CCOP(=S)(NC(C)C)Oc1ccccc1C(=O)OC(C)C (centres undefined) [Isofenphos] | 12.1 |
| CC(C)OC(=O)C(C(=O)OC(C)C)=C1SCCS1 [Isoprothiolane] | 10.4 |
| CC(C)c1ccc(NC(=O)N(C)C)cc1 [Isoproturon] | 9.6 |
| CCC(C)(CC)c1cc(NC(=O)c2c(OC)cccc2OC)on1 [Isoxaben] | 10.4 |
| CCC(C)C1OC2(CCC1C)CC1CC(CC=C(C)C(OC3CC(OC)C(OC4CC(OC)C(O)C(C)O4)C(C)O3)C(C)C=CC=C3COC4C(O)C(C)=CC(C(=O)O1)C34O)O2 (centres undefined) [Ivermectin] | 16.3 |
| COC1C(OC(C)=O)CC(=O)OC(C)CC=CC=CC(O)C(C)CC(CC=O)C1OC1OC(C)C(OC2CC(C)(O)C(OC(=O)CC(C)C)C(C)O2)C(N(C)C)C1O (centres undefined) [Josamycin] | 11.4 |
| CNC1(c2ccccc2Cl)CCCCC1=O (centres undefined) [Ketamine] | 4.88 |
| CC(C(=O)O)c1cccc(C(=O)c2ccccc2)c1 (centres undefined) [Ketoprofen] | 10.3 |
| CON=C(C(=O)OC)c1ccccc1COc1ccccc1C [Kresoxim-methyl] | 11.7 |
| O=c1[nH]c2c(c(=O)n1C1CCCCC1)CCC2 [Lenacil] | 8.9 |

| Structure (SMILES) | LC retention time [min] |
| --- | --- |
| CN(C)c1ccc(C(c2ccccc2)c2ccc(N(C)C)cc2)cc1 [Leucomalachite green] | 10.4 |
| CCCC1CC(C(=O)NC(C(C)O)C2OC(SC)C(O)C(O)C2O)N(C)C1 (centres undefined) [Lincomycin] | 3.56 |
| CON(C)C(=O)Nc1ccc(Cl)c(Cl)c1 [Linuron] | 10.3 |
| O=C1Nc2ccc(Cl)cc2C(c2ccccc2Cl)=NC1O (centres undefined) [Lorazepam] | 9.87 |
| O=C(NC(=O)c1c(F)cccc1F)Nc1cc(Cl)c(OC(F)(F)C(F)C(F)(F)F)cc1Cl (centres undefined) [Lufenuron] | 9.67 |
| CC(N)Cc1ccc2c(c1)OCO2 (centres undefined) [MDA] | 3.62 |
| CCNC(C)Cc1ccc2c(c1)OCO2 (centres undefined) [MDEA] | 4.27 |
| CNC(C)Cc1ccc2c(c1)OCO2 (centres undefined) [MDMA] | 3.79 |
| CC(C)(C)NCC(O)c1cc(Cl)c(N)c(C(F)(F)F)c1 (centres undefined) [Mabuterol] | 6.05 |
| COC1CC(OC2CC(C3OC(C)(O)C(C)CC3C)OC2C2(C)CCC(C3(C)CCC4(CC(O)C(C)C(C(C)C5OC(O)(CC(=O)O)C(C)C(OC)C5OC)O4)O3)O2)OC(C)C1OC (centres undefined) [Maduramicine] | 15.7 |
| CCOC(=O)CC(SP(=S)(OC)OC)C(=O)OCC (centres undefined) [Malathion] | 11.6 |
| CCC(C)(C)NCC(O)c1cc(Cl)c(N)c(C(F)(F)F)c1 (centres undefined) [Mapenterol] | 7.01 |
| CN1CCN(c2c(F)cc3c(=O)c(C(=O)O)cn4c3c2OCN4C)CC1 [Marbofloxacin] | 2.84 |
| CN(C(=O)COc1nc2ccccc2s1)c1ccccc1 [Mefenacet] | 10.7 |
| Cc1cccc(Nc2ccccc2C(=O)O)c1C [Mefenamic acid] | 13.4 |
| CC#Cc1cc(C)nc(Nc2ccccc2)n1 [Mepanipyrim] | 10.7 |
| Cc1ccccc1C(=O)Nc1cccc(OC(C)C)c1 [Mepronil] | 10.4 |
| CS(=O)(=O)c1ccc(C(=O)C2C(=O)CCCC2=O)c([N+](=O)[O-])c1 [Mesotrione] | 5.53 |
| COCC(=O)N(c1c(C)cccc1C)C(C)C(=O)OC (centres undefined) [Metalaxyl] | 9.73 |
| Cc1nnc(-c2ccccc2)c(=O)n1N [Metamitron] | 4.51 |
| Cc1cccc(C)c1N(Cn1cccn1)C(=O)CCl [Metazachlor] | 8.95 |
